This note sets out measurements from patent publication US20180009797A1, “AZA-ARYL 1H-PYRAZOL-1-YL BENZENE SULFONAMIDES” (ChemoCentryx, Inc., priority 2016, published 2018).

For one assay, the target named is T1, CCR(9) (Homo sapiens, UniProt P51686).
T1 construct: CCR(9)-expressing cells such as T cell line MOLT-4 cells; host or cells: MOLT-4 T cell line
T1 sequence (P51686 1-369): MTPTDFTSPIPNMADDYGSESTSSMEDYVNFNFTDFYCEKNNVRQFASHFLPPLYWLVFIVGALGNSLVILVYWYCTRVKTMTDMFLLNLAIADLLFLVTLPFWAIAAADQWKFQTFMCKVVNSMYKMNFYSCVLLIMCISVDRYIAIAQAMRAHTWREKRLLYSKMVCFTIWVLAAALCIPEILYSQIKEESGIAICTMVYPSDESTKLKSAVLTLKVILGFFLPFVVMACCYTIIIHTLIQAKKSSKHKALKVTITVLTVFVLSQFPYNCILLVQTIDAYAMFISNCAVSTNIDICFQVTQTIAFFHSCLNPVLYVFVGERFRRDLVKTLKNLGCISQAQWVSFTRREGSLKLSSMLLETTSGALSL
Briefly: calcium mobilization assay (FLIPR, MOLT-4 cells, hTECK). The settings on record: read-out: CCR(9) Ca^2+. Format: cell-based. The procedure: In calcium signaling assays used to determine the ability of a compound to interfere with binding between a chemokine receptor and a known chemokine ligand, chemokine receptor-expressing cells (CCR(9)-expressing cells such as T cell line MOLT-4 cells) are first incubated with a compound of interest, such as a potential chemokine antagonist, at increasing concentrations. The cell number can be from 10^5 to 5×10^6 cells per well in a 96-well microtiter plate. The concentration of the compound being tested may range from 0 to 100 μM. After a period of incubation (which can range from 5 to 60 minutes), the treated cells are placed in a Fluorometric Imaging Plate Reader (FLIPR®) (available from Molecular Devices Corp., Sunnyvale, Calif.) according to the manufacturer's instruction. The FLIPR® system is well known to those skilled in the art as a standard method of performing assays. The cells are then stimulated with an appropriate amount of the chemokine ligand (TECK for CCR(9)) at 5-100 nM final concentration, and the signal of intracellular calcium increase (also called calcium flux) is recorded. The efficacy of a compound as an inhibitor of binding between the chemokine and the ligand can be calculated as an IC50 (the concentration needed to cause 50% inhibition in signaling) or IC90 (at 90% inhibition).
(§1) MOLT-4 cells were obtained from the American Type Culture Collection (Manassas, Va.) and cultured in RPMI tissue culture medium supplemented with 10% fetal calf serum (FCS) in a humidified 5% CO2 incubator at 37° C. Recombinant human chemokine proteins TECK was obtained from R&D Systems (Minneapolis, Minn.). ChemoTX® chemotaxis microchambers were purchased from Neuro Probe (Gaithersburg, Md.). CyQUANT® cell proliferation kits were purchased from Molecular Probes (Eugene, Oreg.). Calcium indicator dye Fluo-4 AM was purchased from Molecular Devices (Mountain View, Calif.).
A cytoplasmic calcium mobilization assay was used to determine the efficacy of potential receptor antagonists at blocking the signals mediated through chemokine receptors, such as CCR(9). This assay was routinely performed using the Fluorescent Imaging Plate Reader (FLIPR, Molecular Devices). MOLT-4 cells were labeled with the fluorescent-indicator dye Fluo-4 (Molecular Devices) according to the manufacturer's directions. After labeling, the cells were collected by centrifugation (400×g for 5 min at room temperature) and resuspended in HBSS to a cell density of 2.5×10^6 cells/mL. Test compounds were prepared in 100% DMSO at 100× the final concentration; generally, a range of concentrations of each compound were tested, with final concentrations from 0.1 nM to 10,000 nM. Labeled cells (300 μL) were mixed with compound or an equal volume of DMSO (3 μL) in a 96-well plate; after thorough mixing, 50 μL of this cell/compound mixture was added to each of four wells of a 384-well FLIPR plate. The chemokine agonist (i.e., hTECK), prepared in HBSS at a 5× concentration of the previously determined EC^50 concentration, was added to each well and resulting changes in the fluorescent intensity, indicative of chemokine receptor-mediated signaling, were recorded on the FLIPR.
For orientation: A change in cytosolic calcium serves as a functional read-out for many receptors and channels.
Turning to `CC(C)(C)c1ccc(S(=O)(=O)Nc2cc(C(F)(F)F)nn2-c2cccc3cccnc23)cc1`, the IC50 is more than 1 µM. On the same count and under the same terms, as for `CC(C)(C)c1ccc(S(=O)(=O)Nc2cc(C(F)(F)F)nn2-c2ncnc3ccccc23)cc1`, the figure is less than 0.1 µM; as for `Cc1cc(NS(=O)(=O)c2ccc3c(c2)CCC3(C)C)n(-c2cccc3ncccc23)n1`, less than 0.1 µM; as for `Cc1cc(NS(=O)(=O)c2ccc3c(c2)CC(C)(C)O3)n(-c2cccc3ncccc23)n1`, less than 0.1 µM. Still for that read-out and setting: the same measure for `Cc1cc(NS(=O)(=O)c2ccc(C(C)(C)C)cc2)n(-c2ncnc3ccccc23)n1`: less than 0.1 µM; for `CCOc1ccc(S(=O)(=O)Nc2cc(C)nn2-c2cccc3ncccc23)cc1`: less than 0.1 µM; for `Cc1cc(NS(=O)(=O)c2ccc(C(C)(C)C)cc2)n(-c2cccc3[nH]c(=O)ccc23)n1`: less than 0.1 µM. On the same count and under the same terms, as for `Cc1cc(NS(=O)(=O)c2ccc(C3(C#N)CC3)cc2)n(-c2cccc3ncccc23)n1`, the figure is less than 0.1 µM; as for `COc1ccc(S(=O)(=O)Nc2cc(C)nn2-c2cccc3ncccc23)cc1`, 0.1 to 1 µM.

In the case of `Cc1cc(NS(=O)(=O)c2ccc(C(C)(C)O)cc2)n(-c2cccc3ncccc23)n1`, the IC50 was less than 0.1 µM. Still for that read-out and setting: as for `CCc1ccc(S(=O)(=O)Nc2cc(C)nn2-c2cccc3ncccc23)cc1`, the figure is less than 0.1 µM; as for `Cc1cc(NS(=O)(=O)c2ccc(C(C)(C)C)cc2)n(-c2ccc(N(C)C)c3ccccc23)n1`, less than 0.1 µM; as for `Cc1cc(NS(=O)(=O)c2ccc(C(C)(C)C)cc2)n(-c2c(C)ccc3ncccc23)n1`, less than 0.1 µM. Still for that read-out and setting: the same measure for `CC(C)c1cc(NS(=O)(=O)c2ccc(C(C)(C)C)cc2)n(-c2cccc3ncccc23)n1`: 0.1 to 1 µM; for `COc1ccc2ncccc2c1-n1nc(C)cc1NS(=O)(=O)c1ccc(C(C)(C)C)cc1`: less than 0.1 µM. Same read-out and setting: the same measure for `Cc1cc(NS(=O)(=O)c2ccc(OC(C)(C)C)cc2)n(-c2cccc3ncccc23)n1`: 0.1 to 1 µM; for `Cc1cc(NS(=O)(=O)c2ccc(N3CCOCC3)cc2)n(-c2cccc3ncccc23)n1`: less than 0.1 µM; for `Cc1cc(NS(=O)(=O)c2ccc(C(C)(C)C)cc2)n(-c2cccc3cnncc23)n1`: more than 1 µM.

For `Cc1cc(NS(=O)(=O)c2ccc(C(C)(C)C)cc2)n(-c2cccc3nccc(C)c23)n1`, the IC50 is less than 0.1 µM.

Turning to `CC(C)(C)c1ccc(S(=O)(=O)Nc2cc(CO)nn2-c2cccc3ncccc23)cc1`, the IC50 was less than 0.1 µM. Regarding `Cc1cc(NS(=O)(=O)c2ccc(N3CCOCC3)c(F)c2)n(-c2cccc3ncccc23)n1`, the IC50 is less than 0.1 µM. Regarding `CC(C)(C)c1ccc(S(=O)(=O)Nc2c3c(nn2-c2cccc4cnccc24)CCC3)cc1`, the IC50 was less than 0.1 µM. Same read-out and setting: the same measure for `CC(C)(C)c1ccc(S(=O)(=O)Nc2cc(C3CC3)nn2-c2cccc3ncccc23)cc1`: less than 0.1 µM; for `Cc1cc(NS(=O)(=O)c2ccc(C(C)(C)C)cc2C)n(-c2cccc3ncccc23)n1`: 0.1 to 1 µM. With `COc1cc(C(C)(C)C)ccc1S(=O)(=O)Nc1cc(C)nn1-c1cccc2ncccc12`, the IC50 is less than 0.1 µM. `Cc1cc(NS(=O)(=O)c2ccc(C(C)(C)C)cc2)n(-c2ncc(C)c3ccccc23)n1`: the IC50 was less than 0.1 µM.

As to `Cc1cc(NS(=O)(=O)c2ccc(C(C)(C)C)cc2)n(-c2ccc3ccccc3n2)n1`, the IC50 was in the range of 0.1 to 1 µM. Same read-out and setting: as for `Cc1cc(NS(=O)(=O)c2ccc(C(C)(C)C)cc2)n(-c2ccc(Cl)c3nccc(C)c23)n1`, the figure is less than 0.1 µM. Same read-out and setting: the same measure for `Cc1cnc2cccc(-n3nc(C)cc3NS(=O)(=O)c3ccc(C(C)(C)C)cc3)c2c1`: 0.1 to 1 µM.

In the case of `Cc1cc(NS(=O)(=O)c2ccc(C(C)(C)C)cc2)n(-c2ccc3ncccc3c2)n1`, the IC50 is less than 0.1 µM. The same measure, in the same setting: as for `Cc1cc(NS(=O)(=O)c2ccc(C(C)(C)C)cc2)n(-c2ccnc3ccc(F)cc23)n1`, the figure is less than 0.1 µM; as for `Cc1nn(-c2cccc3ncccc23)c(NS(=O)(=O)c2ccc(C(C)(C)C)cc2)c1F`, less than 0.1 µM; as for `Cc1cc(NS(=O)(=O)c2ccc(C(C)(C)C)cc2)n(Cc2cccc3ncccc23)n1`, 0.1 to 1 µM.

In the case of `Cc1cc(NS(=O)(=O)c2ccc(C(C)(C)C)cc2)n(Cc2cccc3cnccc23)n1`, the IC50 was less than 0.1 µM.

On to `Cc1cc(NS(=O)(=O)c2ccc(C(C)(C)C)cc2)n(-c2cc3ccccc3cn2)n1`, for which the IC50 is less than 0.1 µM.

Consider `CC(C)(C)c1ccc(S(=O)(=O)Nc2cc(CC#N)nn2-c2cccc3ncccc23)cc1`, for which the IC50 was less than 0.1 µM.

For the compound `Cc1cnc2c(Cl)ccc(-n3nc(C)cc3NS(=O)(=O)c3ccc(C(C)(C)C)cc3)c2c1`, the IC50 is less than 0.1 µM. On the same count and under the same terms, the same measure for `CC(C)Oc1ccc(S(=O)(=O)Nc2cc(C(C)(F)F)nn2-c2cccc3ncccc23)cc1`: less than 0.1 µM; for `Cc1cc(NS(=O)(=O)c2ccc3c(c2)CCC(C)(C)O3)n(-c2cccc3ncccc23)n1`: less than 0.1 µM; for `CC(C)c1ccc(S(=O)(=O)Nc2cc(C(C)(F)F)nn2-c2cccc3ncccc23)cc1`: less than 0.1 µM. On the same count and under the same terms, the same measure for `CC(C)(C)c1ccc(S(=O)(=O)Nc2cc(C(N)=O)nn2-c2cccc3ncccc23)cc1`: 0.1 to 1 µM; for `CC(C)(C)c1ccc(S(=O)(=O)Nc2cc(C(C)(F)F)nn2-c2cccc3ncccc23)cc1`: less than 0.1 µM.

For the next assay, the target named is T1, CCR(9). Briefly: serum chemotaxis (serum migration) assay, MOLT-4 cells in human serum, TECK. Format: cell-based. To be noted: read-out: A2. The procedure: In vitro cell chemotaxis assays can be performed (but are not limited to this format) using the 96-well microchamber (called ChemoTX™). The ChemoTX™ system is well known to those skilled in the art as a type of chemotactic/cell migration instrument. In this assay, CCR(9)-expressing cells (such as MOLT-4) are first incubated with a compound of interest, such as a possible CCR(9) antagonist at increasing concentrations. Typically, fifty thousand cells per well are used, but the amount can range from 10^3-10^6 cells per well. The chemokine ligand (for example, CCR(9) ligand TECK, typically at 50 nM (but can range from 5-100 nM)), is placed at the lower chamber and the migration apparatus is assembled. Twenty microliters of test compound-treated cells are then placed onto the membrane. Migration is allowed to take place at 37° C. for a period of time, typically 2.5 hours for CCR(9). At the end of the incubation, the number of cells that migrated across the membrane into the lower chamber is then quantified. The efficacy of a compound as an inhibitor of chemokine-mediated cell migration can be calculated as an IC50 (the concentration needed to reduce cell migration by 50%) or IC90 (for 90% inhibition).
as §1
A serum chemotaxis assay was used to determine the efficacy of potential receptor antagonists at blocking the migration mediated through chemokine receptors, such as CCR(9). This assay was performed using the ChemoTX® microchamber system with a 5-μm pore-sized polycarbonate membrane. MOLT-4 cells were collected by centrifugation at 400×g at room temperature, then suspended at 50 million/ml in human serum, containing 50 mM HEPES (final pH of 7.2). The compound being tested or an equivalent volume of its solvent (DMSO) was then added to the cell/serum mixture at a final DMSO concentration of 0.125% (v/v), and this mixture was then incubated together at 37° C. for one hour. Separately, recombinant human TECK was diluted with chemotaxis buffer (HBSS+0.1% BSA), generally spanning a range from 0.1 nM to 500 nM, after which 29 μl of diluted chemokine was placed in the lower wells of the ChemoTX® plate. The 5-μm (pore size) polycarbonate membrane was placed onto the plate, and 20 μL of the cell/compound mixture was transferred onto each well of the membrane. The plates were incubated at 37° C. for 90 minutes, after which the polycarbonate membranes were removed and 5 μl of the DNA-intercalating agent CyQUANT (Invitrogen, Carlsbad, Calif.) was added to the lower wells. The amount of fluorescence, corresponding to the number of migrated cells, was measured using a Spectrafluor Plus plate reader (TECAN, San Jose, Calif.).
The A2 values were calculated from the following equation, comparing the efficacy of the test compound with that of the DMSO-only control at equi-active chemokine levels:
Log(A2)=log [drug(M)]−log [(A′/A)−1]
where A reflects the potency of the agonist in the absence of antagonist and […] reflects the potency of the agonist in the presence of antagonist at a given concentration of drug ([drug(M)]).
Regarding `Cc1cc(NS(=O)(=O)c2ccc(OC(C)C)cc2)n(-c2cccc3ncccc23)n1`, the EC50 was 0.501 to 2.5 µM. Still for that read-out and setting: the same measure for `Cc1cc(NS(=O)(=O)c2ccc(C(C)(C)C)c(F)c2)n(-c2cccc3nc(N)ccc23)n1`: less than 0.5 µM; for `Cc1cc(NS(=O)(=O)c2ccc(C(C)(C)C)cc2)n(-c2ccc(F)c3ncccc23)n1`: 0.501 to 2.5 µM.
